Laboratory results taken from patent US20130123201A1, “MODULATION OF CYTOKINE-INDUCED CHRONIC INFLAMMATORY RESPONSES” (UNIVERSITY OF MANITOBA, priority 2010, published 2013).
No end group written: not given here.

How the values were obtained:
Assay type in all cases: cell-based
[1] = tested on: rabbit synovial fibroblast HIG-82 cell line; assay: Cellular cytotoxicity by LDH release; details: HIG-82 synovial fibroblast cell line, within 4 hr
Description: (§1) Where indicated the THP-1 cells were differentiated to plastic-adherent macrophage-like cells by treatment with phorbol 12-myristate 13-acetate (PMA; Sigma-Aldrich Canada, Oakville ON) as taught by Mookherjee et al. (2006). A rabbit synoviocyte cell line HIG-82 (ATCC® CRL-1832) was cultured in Ham's F-12 growth medium containing glutamine supplemented with sodium pyruvate (referred to as complete F-12 media henceforth), containing 10% (v/v) FBS in a humidified incubator at 37° C. and 5% CO2. Confluent HIG-82 cells were trypsinized with 1:3 dilution of 0.5% trypsin-EDTA in Hanks' balanced salt solution. Cellular cytotoxicity was evaluated after AHA labeling and upon stimulation with the various cytokines for all the cell types used in this study by monitoring the release of lactate dehydrogenase (LDH) employing a colorimetric detection kit (Roche Diagnostics, Laval, QC, Canada). Recombinant human cytokines TNF-α and IL-1β were obtained from eBioscience, Inc (San Diego, Calif., USA).

[2] = tested on: human T-cell Jurkat cell line; assay: Cellular cytotoxicity by LDH release; details: human T-cell Jurkat cells
Description: as §1

[3] = tested on: human monocytic THP-1 cells; assay: Cellular cytotoxicity by LDH release
Description: Human monocytic THP-1 (ATCC® TIB-202; ATCC is a registered trademark of the American Type Culture Collection, Manassas, Va., USA) cells were cultured in RPMI-1640 media containing 2 mM L-glutamine and 1 mM sodium pyruvate (referred to as complete RPMI media from here on), supplemented with 10% (v/v) FBS, and maintained in a humidified incubator at 37° C. and 5% CO2. […] Cellular cytotoxicity was evaluated after 24 hr stimulation with the various stimulants used in this study by monitoring the release of lactate dehydrogenase (LDH) employing a colorimetric detection kit (Roche Diagnostics, Laval, QC, Canada) Human monocytic THP-1 (ATCC® TIB-202) cells and Jurkat T-cell line (ATCC® TIB-152) were cultured in RPMI-1640 media containing 2 mM L-glutamine and 1 mM sodium pyruvate, supplemented with 10% (v/v) FBS, and maintained in a humidified incubator at 37° C. and 5% CO2. […] Cellular cytotoxicity was evaluated after AHA labeling and upon stimulation with the various cytokines for all the cell types used in this study by monitoring the release of lactate dehydrogenase (LDH) employing a colorimetric detection kit (Roche Diagnostics, Laval, QC, Canada).

[4] = tested on: human PBMC; assay: ELISA of IL-32-induced TNF-α and IL-1β production in PBMC (ex-vivo); details: for Effect on IL-32-induced TNF-α production: p<0.05; for Effect on IL-32 induced pro-inflammatory protein production (FIG. 21 legend): peripheral blood mononuclear cells
From the text: In order to confirm these activities in a physiologically relevant system, we evaluated the impact of the peptide in an ex-vivo assay using human PBMC, because cells recruited from the circulation are a major component of inflammatory infiltrates. Venous blood was collected from healthy volunteers with informed consent in accordance to a protocol approved by the Institutional Review Board at the University of Manitoba. PBMC was isolated from blood following the teaching of Mookherjee et al. (2009, Systems biology evaluation of immune responses induced by human host defence peptide LL-37 in mononuclear cells. Mol. Biosyst. 5:483-496). PBMC were stimulated with chronic inflammatory cytokine IL-32 (20 ng/ml) in the presence and absence of 5 μM of peptides, LL-37 and its derivatives (Table 7) for 24 hr. The tissue culture supernatants were monitored for the production of pro-inflammatory cytokines TNF-α and IL-1β by ELISA. […] Results shown are an average of four independent biological experiments performed with cells isolated from blood of four different donors ±standard error.

[5] = tested on: Human macrophage-like THP-1 cells; assay: ELISA of cytokine/chemokine production in THP-1 tissue culture supernatants; details: macrophage-like THP-1 cells, IL-32 20 ng/mL, 24 hr
Description: ELISA immunoassay: Tissue culture supernatants were centrifuged at 1500× g for 5-7 min to obtain cell-free samples and the aliquots were stored at −20° C. until further use. Production of chemokine Gro-α was monitored in the tissue culture supernatants by ELISA employing human Gro-α DuoSet (R&D Systems Inc.) as per the manufacturer's instructions. Production of cytokine TNF-α was monitored in the tissue culture supernatants using specific antibody pairs from eBioscience, Inc., and production of IL-8 was monitored using specific antibody pairs from R&D Systems, Inc., as per the manufacturer's instructions. The concentration of the cytokines or chemokines in the tissue culture supernatants was evaluated by establishing a standard curve with serial dilutions of the recombinant human cytokines or chemokines as required.
ELISA immunoassay: Tissue culture supernatants were centrifuged at 1500× g for 5-7 min to obtain cell-free samples and the aliquots were stored at −20° C. until further use. Production of chemokine Gro-α was monitored in the tissue culture supernatants by ELISA employing human Gro-α DuoSet (R&D Systems Inc.) per the manufacturer's instructions. Production of cytokine TNF-α was monitored in the tissue culture supernatants using specific antibody pairs from eBioscience, Inc., and production of IL-8 was monitored using specific antibody pairs from R&D Systems, Inc., per the manufacturers' instructions. The concentrations of the cytokines or chemokines in the tissue culture supernatants were evaluated by establishing a standard curve with serial dilutions of the recombinant human cytokines or chemokines as required.
Impact of cationic peptide LL-37 and its synthetic derivatives on IL-32-induced protein production: Human macrophage-like THP-1 cells were stimulated with IL-32 (20 ng/mL) in the presence and absence of cationic peptide LL-37, tissues culture supernatants were monitored for the production of pro-inflammatory cytokines TNF-α and IL-1β, and chemokines after 24 hr of stimulation. […] As LL-37 suppressed IL-32-mediated pro-inflammatory responses, we also evaluated the impact of LL-37 derived synthetic peptides. […] No studies to data have explored the impact of these peptides in the context of chronic inflammation. […] This provides the data that supports further investigation of these peptide candidates as potential therapeutics for diseases characterized by chronic inflammation.

[6] = tested on: Human THP-1 monocytic cells; assay: qRT-PCR kinetics of cytokine-induced gene expression of identified candidates
From the text: Quantitative real-time PCR (qRT-PCR): RNA was isolated using the Qiagen RNeasy® kit as per the manufacturer's instructions (Rneasy is a registered trademark of Qiagen GmbH, Hilden, Fed. Rep. Germany). Gene expression was subsequently analyzed by qRT-PCR using SuperScript® III Platinum Two-Step qRT-PCR Kit with SYBR Green (SuperScript is a registered trademark of Invitrogen Corp., Carlsbad, Calif., USA), according to the manufacturer's instructions, in the ABI PRISM® 7300 sequence detection system (BI PRISM is a registered trademark of Applera Corp., Foster City, Calif., USA). Fold changes were calculated by the comparative Ct method as taught by Pfaffl (2001) after normalization with 18sRNA.

[7] = tested on: human monocytic THP-1 cells; assay: AHA labeling, affinity purification and iTRAQ quantitative proteomics of nascent proteins; details: AHA-labeled THP-1 cells, cytokine 10 ng/ml, 4 hr, vs un-stimulated cells
Description: (§2) AHA labeling, biotin tagging of nascent proteins, and affinity purification: Cells were washed with warm D-PBS, and cultured in methionine-free, serum-free RPMI media at 37° C. 5% CO2 for 60 min. […] TC supernatants were monitored for the production of IL-8 by ELISA. Metabolic labeling of the cells with AHA reagent in the presence of the cytokine stimulants would result in induced nascent proteins with azide-bearing functional group, thus making them distinct from pool of pre-existing cellular proteins. Also these functional groups were further used to tag the nascent proteins with a biotin-alkyne reagent as follows. The cells were washed with D-PBS, followed by preparing cell lysates in lysis buffer containing 50 mM Tris-HCl, 1% SDS, 250 U/ml of benzonase nuclease and protease and phosphatase inhibitor cocktails (Sigma-Aldrich Canada Inc.). Total protein was estimated in the cell lysates using micro BCA analysis. Equivalent amount of total protein from each sample was acetone precipitated and then treated with Click-iT® Biotin-alkyne reagent (Invitrogen Canada Inc.) per the manufacturer's instructions. The biotin-alkyne reagent thus covalently coupled to the reactive azide group of the AHA-modified proteins was used to subsequently enrich the nascent proteins by affinity purification using Ultralink® Immobilized NeutrAvidin® resin (Ultralink and NeutrAvidin are registered trademarks of Pierce Biotechnology Inc, Rockford, Ill., USA), and the bound proteins were eluted using 6 M guanidinium hydrochloride.
Quantitative proteomics employing isobaric tag for relative and absolute quantitation (iTRAQ): Amine-modifying iTRAQ™ reagents multiplex kit (Applied Biosystems, Foster City, Calif., USA) was employed for relative quantitation of purified nascent proteins. Affinity purified eluates were acetone precipitated at −20° C. overnight. Proteins were dissolved in 20 μl of iTRAQ dissolution buffer (Applied Biosystems) and further processed as per the manufacturer's instructions. Briefly, proteins were reduced and the cysteines blocked using the reagents in kit, followed by digestion of the protein samples with provided trypsin solution overnight at 37° C. […] The contents from each of the iTRAQ reagent-labeled sample was combined together and processed for nanoflow liquid chromatography coupled to tandem mass spectrometry (LC-MS/MS).
The AHA-containing nascent proteins enriched by affinity purification were quantitated using isobaric iTRAQ quantitative proteomics reagents. This was done to identify and estimative the relative abundance of nascent proteins enriched in the cytokine-treated samples compared to un-stimulated cells. […] Samples from four independent experiments were individually examined by LC-MS/MS. Peptides identified with 95% confidence were selected for further analysis. The mass spectrometry data was analyzed using Global Proteome Machine (GPM-http://www.thegpm.org/).

[8] = tested on: AHA-labeled human monocytic THP-1 cells; assay: ELISA of IL-8 production by AHA-labeled THP-1 cells; details: 10 ng/ml, 4 hr
Description: as §2, with “The biotin-alkyne reagent thus covalently coupled to the reactive azide group of the AHA-modified proteins was used to subsequently enrich the nascent proteins by affinity purification using Ultralink® Immobilized NeutrAvidin® resin (Ultralink and NeutrAvidin are registered trademarks of Pierce Biotechnology Inc, Rockford, Ill., USA), and the bound proteins were eluted using 6 M guanidinium hydrochloride.” left out

[9] = human PBMC, IL-32 20 ng/ml, 5 μM peptide, 24 hr

For `[N-]=[N+]=NCC[C@H](N)C(=O)O` [AHA, L-azidohomoalanine], the “Cytotoxicity of AHA labeling (LDH release)” value (“Cytotoxicity of AHA labeling” for short) [1] was “cytotoxic”, the “Cytotoxicity of AHA labeling” value [2] was “not cytotoxic” and the “Cytotoxicity of AHA labeling” value ([3]; human monocytic THP-1 cells) was “not cytotoxic”.

In the case of “IG-19: LL-37-derived synthetic peptide, SEQ ID NO: 23, IGKEFKRIVQRIKDFLRNL-NH2”, the “Effect on IL-32-induced IL-1β production” value [4, 9] is reported as “neutralized”, the “Effect on IL-32-induced TNF-α production” value [4, 9] is reported as “neutralized” and the “Effect on IL-32 induced pro-inflammatory protein production (FIG. 21 legend)” value (“Effect … (FIG. 21 legend)” for short) [4] is reported as “suppression”. The “Effect on IL-32-induced IL-1β production” value [5] was “significantly suppressed”, the “Effect on IL-32-induced TNF-α production” value [5] was “significantly suppressed” and the “Effect on IL-32-induced chemokine production (IL-8, GROα)” value [5] was “did not completely neutralize”.

“IG-25: LL-37-derived synthetic peptide, SEQ ID NO: 22, IGKEFKRIVQRIKDFLRNLVPRTES-NH2” was tested, and the “Suppression of IL-32-induced TNF-α production” value [4, 9] was greater than 90%, the “Effect on IL-32-induced TNF-α production” value [4, 9] was “neutralized” and the “Effect … (FIG. 21 legend)” value [4] was “suppression”. The “Effect on IL-32-induced IL-1β production” value [5] was “significantly suppressed”, the “Effect on IL-32-induced TNF-α production” value [5] was “significantly suppressed” and the “Effect on IL-32-induced chemokine production (IL-8, GROα)” value [5] was “did not completely neutralize”.

“IL-1β: Recombinant human cytokine IL-1β from eBioscience, used as stimulant” was tested, and the “Up-regulation of gene expression of PYGL” value [6] was 1.5 fold, the “Up-regulation of gene expression of RAB14 and Eifa3” value ([6]; p≦0.01) was no less than 1.5 fold and the “Fold Change of nascent protein AIFM1” value [7] was 1.2 fold. For the same molecule, the “Fold Change of nascent protein ALDOA” value [7] was 1.5 fold, the “Fold Change of nascent protein CALR” value [7] was 1.0 fold and the “Fold Change of nascent protein CAP1” value [7] was 1.9 fold. The “Fold Change of nascent protein CTPS” value [7] was 1.5 fold, the “Fold Change of nascent protein DDX17” value [7] was 2.2 fold and the “Fold Change of nascent protein EIFA3” value [7] was 1.2 fold. For the same molecule, the “Fold Change of nascent protein HMGN1” value [7] was 1.5 fold, the “Fold Change of nascent protein HSPA4” value [7] was 1.1 fold and the “Fold Change of nascent protein LCP1” value [7] was 1.5 fold. For the same molecule, the “Fold Change of nascent protein PRTN3” value [7] was 0.8 fold, the “Fold Change of nascent protein PSME2” value [7] was 2.3 fold and the “Fold Change of nascent protein PYGL” value [7] was 1.7 fold. The “Fold Change of nascent protein RAB14” value [7] was 1.2 fold, the “Fold Change of nascent protein SEC22B” value [7] was 1.6 fold and the “Fold Change of nascent protein VDAC3” value [7] was 1.1 fold. The “Cytotoxicity of cytokine treatment (LDH release)” value ([3]; AHA-labeled THP-1 cells, cytokine 10 ng/ml, 4 hr, data not shown) was “not cytotoxic”, the “IL-8 production upon IL-1β stimulation compared to cells stimulated with TNF-α” value [8] was “more than 2 fold” and the “Production of IL-8” value ([8]; p<0.001) was “significant”.

In the case of “RK-25: LL-37-derived synthetic peptide, SEQ ID NO: 24, RKSKEKIGKEFKRIVQRIKDFLRNL-NH2”, the “Effect … (FIG. 21 legend)” value [4] is reported as “suppression”.
